Laboratory results: ChEMBL document CHEMBL5244201, “Non-covalent albumin-binding ligands for extending the circulating half-life of small biotherapeutics” (Medchemcomm, 2019)

How the values were obtained:
Albumin [1] = molecular target: T1, Albumin (Homo sapiens, UniProt P02768); assay: Binding affinity to human albumin
Albumin [2] = molecular target: T2, Albumin (Mus musculus, UniProt P07724); assay: Binding affinity to mouse albumin
[3] = Terminal half life in iv dosed mouse; format: ADME, organism-based; settings: in vivo, read-out: beta t1/2 (converted)
Albumin [4] = molecular target: T1, Albumin; assay: Binding affinity to human serum albumin by fluorescence polarization assay
Albumin [5] = molecular target: T1, Albumin; assay: Binding affinity to human albumin assessed as dissociation constant by fluorescence polarization assay
Albumin [6] = molecular target: T2, Albumin; assay: Binding affinity to mouse albumin assessed as dissociation constant by fluorescence polarization assay
Albumin [7] = molecular target: T1, Albumin; assay: Binding affinity to human albumin assessed as dissociation constant by ITC method
Albumin [8] = molecular target: T1, Albumin; assay: Binding affinity to human albumin assessed as dissociation constant
Macaca fascicularis = organism: Macaca fascicularis; assay: Terminal half life in monkey; settings: cynomolgus monkey, in vivo; read-out: beta t1/2 (converted)

T1 sequence (P02768 whole entry): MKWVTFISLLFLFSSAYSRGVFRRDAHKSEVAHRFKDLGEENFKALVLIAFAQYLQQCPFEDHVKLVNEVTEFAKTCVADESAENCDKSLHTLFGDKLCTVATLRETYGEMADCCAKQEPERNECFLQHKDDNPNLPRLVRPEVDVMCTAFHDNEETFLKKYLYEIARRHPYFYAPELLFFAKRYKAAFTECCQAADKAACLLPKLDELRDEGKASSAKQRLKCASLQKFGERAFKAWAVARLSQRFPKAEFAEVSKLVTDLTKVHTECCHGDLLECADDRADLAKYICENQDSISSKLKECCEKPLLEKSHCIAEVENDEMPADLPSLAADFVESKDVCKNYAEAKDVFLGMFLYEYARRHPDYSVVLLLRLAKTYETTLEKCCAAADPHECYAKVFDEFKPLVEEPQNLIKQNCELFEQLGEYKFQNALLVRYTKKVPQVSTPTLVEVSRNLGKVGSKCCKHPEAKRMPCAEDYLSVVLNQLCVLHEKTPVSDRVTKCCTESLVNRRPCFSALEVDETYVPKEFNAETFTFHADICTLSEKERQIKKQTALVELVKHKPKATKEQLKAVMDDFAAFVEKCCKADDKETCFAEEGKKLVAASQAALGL
T2 sequence (P07724 whole entry): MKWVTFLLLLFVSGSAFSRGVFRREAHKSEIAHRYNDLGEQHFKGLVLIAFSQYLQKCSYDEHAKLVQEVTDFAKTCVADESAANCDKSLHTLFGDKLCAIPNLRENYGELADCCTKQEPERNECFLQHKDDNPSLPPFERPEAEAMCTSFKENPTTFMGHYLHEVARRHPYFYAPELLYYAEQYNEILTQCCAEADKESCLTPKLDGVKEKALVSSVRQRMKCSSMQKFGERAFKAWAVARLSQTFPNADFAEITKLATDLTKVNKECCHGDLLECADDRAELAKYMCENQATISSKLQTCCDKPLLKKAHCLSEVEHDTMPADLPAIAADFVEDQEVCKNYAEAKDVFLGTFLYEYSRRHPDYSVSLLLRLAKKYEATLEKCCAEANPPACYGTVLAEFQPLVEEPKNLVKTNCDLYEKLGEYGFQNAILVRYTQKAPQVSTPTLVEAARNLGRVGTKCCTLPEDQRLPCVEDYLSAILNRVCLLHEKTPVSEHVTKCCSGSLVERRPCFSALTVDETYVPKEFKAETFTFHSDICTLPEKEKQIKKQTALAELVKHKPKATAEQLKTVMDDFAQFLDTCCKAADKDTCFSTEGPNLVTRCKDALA

Compound: O=C(CCCc1ccc(I)cc1)NCCCCC(NC(=O)c1ccc2c(c1)C(=O)OC21c2ccc(O)cc2Oc2cc(O)ccc21)C(=O)O (stereo not given)
- Kd (Albumin [1]): 3.2 µM
- Kd (Albumin [2]): 3.6 µM
- half-life [3]: 16.6 h

Compound: Cc1cccc(OCc2cn(CCCC[C@@H]3NC(=O)CNC(=O)[C@@H]4CCCN4C(=O)[C@H](CCCCNC(=O)c4cnc(N5CCOCC5)c(N)c4)NC(=O)[C@H](CCCCNC(=S)Nc4ccc5c(c4)C(=O)OC54c5ccc(O)cc5Oc5cc(O)ccc54)NC(=O)[C@H](C)NC(=O)CNC(=O)[C@@H]4CCCN4C(=O)[C@H](CCCCNC(=O)c4cccc(Oc5ccccc5)c4)NC(=O)[C@H](C)NC3=O)nn2)n1
- Kd (Albumin [4]): 6.6 µM

Compound: O=C(CCCc1ccc(I)cc1)NCCCC[C@@H](NC(=O)c1ccc(-c2c3ccc(=O)cc-3oc3cc(O)ccc23)c(C(=O)O)c1)C(=O)O
- half-life [3]: 8.25 h
- Kd (Albumin [5]): 0.108 µM
- Kd (Albumin [6]): 0.118 µM
- Kd (Albumin [7]): 0.33 µM

Compound: Ac-WWEQDRDWDFDVFGGGTP-NH2
- Kd (Albumin [8]): 0.015 µM
- half-life (Macaca fascicularis): 31.2 h
